Laboratory results: PubChem BioAssay (NCI)
Values joined by “and” are separate entries in the source; they are usually repeats but may differ in a detail not shown here. Equal entries are not always repeated.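 48-hour exposure; five concentrations; linearly interpolated endpoints. Abbreviation: GI50, concentration required for 50% inhibition of growth. TGI: total growth inhibition.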

Columns and labels:
Assay in all cases: NCI tumour cell line growth inhibition, 48 h
[1] = tested on: MDA-MB-435
[2] = tested on: SNB-19 CNS
[3] = tested on: KM12 colon
[4] = tested on: A549 NSCLC
[5] = tested on: U251 CNS
[6] = tested on: 786-0 renal
[7] = tested on: NCI/ADR-RES ovarian
[8] = tested on: HT29 colon
[9] = tested on: PC-3 prostate
[10] = tested on: UACC-62 melanoma

| Structure (SMILES) | GI50 [1] | TGI [1] | GI50 [2] | TGI [2] | GI50 [3] | TGI [3] | GI50 [4] | TGI [4] | GI50 [5] | TGI [5] | GI50 [6] | TGI [6] | GI50 [7] | TGI [7] | GI50 [8] | TGI [8] | GI50 [9] | TGI [9] | GI50 [10] | TGI [10] |
| --- | --- | --- | --- | --- | --- | --- | --- | --- | --- | --- | --- | --- | --- | --- | --- | --- | --- | --- | --- | --- |
| C#C[C@]1(O)CC[C@H]2[C@@H]3CC=C4c5sc(Nc6cc(F)ccc6F)nc5CC[C@]4(C)[C@H]3CC[C@@]21C | 2.07 µM | 4.61 µM | 1.6 µM | 3.23 µM | 1.97 µM | 4.34 µM | 2.51 µM | 7.86 µM | 0.813 µM | 2.43 µM | 0.415 µM | 1.84 µM | 2.79 µM | 13.8 µM | 2.24 µM | 8.5 µM | 1.34 µM | 10.3 µM | 1.74 µM | 3.75 µM |
| Cn1cnc(N)c(N=O)c1=O |  | > 10 µM |  | > 10 µM |  | > 10 µM |  | > 10 µM |  | > 10 µM |  | > 10 µM |  | > 10 µM |  | > 10 µM |  | > 10 µM |  | > 10 µM |
| CO/N=C(\COc1ccc2c(=O)c3ccccc3oc2c1)c1ccccc1 | 86.7 µM | > 100 µM | 54.5 µM | > 100 µM | 41.4 µM | > 100 µM | 35.2 µM | 99.4 µM | 26.6 µM | 79.2 µM | 25.4 µM | 72.5 µM | 77.1 µM | > 100 µM | 86.5 µM | > 100 µM | 35 µM | > 100 µM | 21.6 µM | 49.9 µM |
| C=CC(=O)N1CCC(c2ccc(C(N)=O)c(-c3ccc(Oc4ccccc4)cc3)n2)CC1 | 29.1 µM | > 100 µM | 47.9 µM | > 100 µM | 39.6 µM | > 100 µM | 28.9 µM | > 100 µM | 32.4 µM | > 100 µM | 31.9 µM | > 100 µM | 30.3 µM | > 100 µM | 46.7 µM | > 100 µM | 29.5 µM | > 100 µM | 30 µM | > 100 µM |
| CCOC(=O)N1C/C(=C\c2ccccc2)C(=O)/C(=C/c2ccccc2)C1 |  | 5.8 µM |  | 20.2 µM |  | 4.55 µM |  | 54.3 µM |  | 7.43 µM |  | 9.15 µM |  | 36.6 µM |  | 4.05 µM |  | 5.16 µM |  | 6.51 µM |
| O=C(NCCN1CCOCC1)OCc1nc2nc(Cl)nc(N3CCOCC3)c2[nH]1 | 0.651 µM | 2.94 µM | 4.18 µM | > 100 µM | 1.96 µM | > 100 µM | 9.33 µM | > 100 µM | 4.09 µM | > 100 µM | 23.7 µM | > 100 µM | 0.566 µM | > 100 µM | > 100 µM | > 100 µM | 3.38 µM | > 100 µM | 2.98 µM | > 100 µM |
| COc1ccc(C(=O)Cn2c(C(=O)c3ccccc3)nc3ccccc32)cc1 | 0.304 µM | 1.87 µM | 6.74 µM | > 100 µM | 1.64 µM | > 100 µM | 6.05 µM | > 100 µM | 3.62 µM | > 100 µM | 9.31 µM | > 100 µM | 1.49 µM |  | 1.25 µM | > 100 µM | 4.56 µM | > 100 µM |  | > 100 µM |
| O=[N+]([O-])/C=C/c1c(Cl)cccc1Cl |  | 4.62 µM |  | 12.1 µM |  | 5.28 µM |  | 22.6 µM |  | 9.27 µM |  | 1.52 µM |  | 12.5 µM |  | 26 µM |  | 5.58 µM |  | 8.14 µM |
| c1ccc(-c2nn3c(c2-c2ccnc4cc(OCCN5CCOCC5)ccc24)CCC3)nc1 | 25.8 µM | > 100 µM | > 100 µM | > 100 µM | 59.4 µM | > 100 µM | 43.8 µM | > 100 µM | 97.3 µM | > 100 µM | > 100 µM | > 100 µM | 52.4 µM | > 100 µM | 30.3 µM | > 100 µM | 98.8 µM | > 100 µM | > 100 µM | > 100 µM |
| O=C1CCc2c(sc3[nH]c(=S)n(-c4cc(C(F)(F)F)cc(C(F)(F)F)c4)c(=O)c23)C1 | 1.22 µM | 5.45 µM | 0.384 µM | > 37 µM | 0.344 µM | 1.36 µM | 0.707 µM | 11.3 µM | 0.364 µM | 1.97 µM | 0.602 µM | 10.5 µM | 0.351 µM | 11.4 µM | 0.939 µM | > 33.6 µM | 0.307 µM | 2.35 µM | 0.294 µM | 1.23 µM |
| O=C1NC(N/N=C\C(O)C(O)C(O)C(O)CO)=N/C1=C/c1ccccc1 (stereo unspecified) | 85.7 µM and 15.7 µM and > 100 µM | > 100 µM and 34.9 µM | 58 µM and 15.3 µM and > 100 µM | > 100 µM and 33.3 µM | 41.6 µM and 16.2 µM and > 100 µM | > 100 µM and 36.7 µM | > 100 µM and 19 µM | > 100 µM and 45.7 µM | > 100 µM and 17.5 µM | > 100 µM and 42.8 µM | 57.5 µM and 19.3 µM and > 100 µM | > 100 µM and 41.3 µM |  | > 100 µM | > 100 µM and 23.2 µM | > 100 µM and 44.5 µM | 47.5 µM and 14.5 µM and > 100 µM | > 100 µM and 28 µM |  | > 100 µM |
| O=[N+]([O-])c1cc[n+]([O-])c2ccccc12 | 0.436 µM | 1.31 µM | 0.374 µM | 2.91 µM | 0.0832 µM | 0.332 µM | 0.149 µM | 0.584 µM | 0.298 µM | 1.3 µM | 0.217 µM | 0.753 µM | 0.965 µM | 4.86 µM | 0.246 µM | 1.09 µM | 0.222 µM | 2.36 µM | 0.231 µM | 0.698 µM |
| C1=C(c2ccccc2)C(N2CCOCC2)Oc2ccccc21 (stereo unspecified) |  | > 100 µM |  | > 100 µM |  | > 100 µM |  | > 100 µM |  | > 100 µM |  | > 100 µM |  | > 100 µM |  | > 100 µM |  | > 100 µM |  | > 100 µM |
| COc1c(C(C)=O)c(OCCCCOc2c(C(C)=O)c(OC)c3ccoc3c2OC)c(OC)c2occc12 | 2.14 µM | > 100 µM | > 28.9 µM | > 100 µM | 3.11 µM | > 100 µM | 3.35 µM | > 100 µM | > 28.1 µM | > 100 µM | > 100 µM | > 100 µM | 1.61 µM | 4.92 µM | 4.06 µM | > 100 µM | 1.69 µM | > 20.6 µM | 2.13 µM | > 100 µM |
| N#CC(CCN1CCC(Nc2ccccc2)(c2nnnn2C2CCCCC2)CC1)(c1ccccc1)c1ccccc1 |  | > 100 µM |  | > 100 µM |  | > 100 µM |  | > 100 µM |  | > 100 µM |  | > 100 µM |  | > 100 µM |  | > 100 µM |  | > 100 µM |  | > 100 µM |
| O=c1c2c([nH]c3nccn13)CCC2 |  | > 10 µM |  | > 10 µM |  | > 10 µM |  | > 10 µM |  | > 10 µM |  | > 10 µM |  | > 10 µM |  | > 10 µM |  | > 10 µM |  | > 10 µM |
| CCOc1ccc2c(-c3ccnc(Nc4cc(OC)cc(C(F)(F)F)c4)n3)cnn2n1 | 0.903 µM | > 10.5 µM | > 25 µM | > 25 µM | 3.58 µM | > 25 µM | > 14.7 µM | > 25 µM | > 13 µM | > 25 µM | > 13.3 µM | > 25 µM | 4.66 µM | > 25 µM | 8.4 µM | > 25 µM | > 15.5 µM | > 25 µM | > 10.9 µM | > 25 µM |
| OCCCCC#Cc1ccccc1C#Cc1ccc(O)cc1 | 16.1 µM | 31 µM | 19.2 µM | 35.9 µM | 14.5 µM | 30.9 µM | 15.8 µM | 30.8 µM | 15 µM | 29.3 µM | 19.4 µM | 36.2 µM | 17.3 µM | 35.2 µM | 9.41 µM | 22.2 µM | 17.2 µM | 35.2 µM | 15.7 µM | 29.6 µM |
| N#Cc1nc(-c2ccc(F)cc2)oc1S(=O)(=O)N1CCCCC1 | 1.82 µM | 3.75 µM | 11 µM | 23 µM | 5.23 µM | 19.3 µM | 6.9 µM | 27.1 µM | 2.22 µM | 5.31 µM | 1.8 µM | 3.53 µM | 4.97 µM | > 100 µM | 2.4 µM | 5.42 µM | 1.81 µM | 3.7 µM | 1.62 µM | 3.01 µM |
| Fc1ccc(-c2ncn(C3CCNCC3)c2-c2ccnc(Oc3ccc4c(c3)OCO4)n2)cc1 | > 19.5 µM | > 25 µM | > 25 µM | > 25 µM | > 25 µM | > 25 µM | 16.4 µM | > 25 µM | 15.3 µM | > 25 µM | > 23.8 µM | > 25 µM | > 25 µM | > 25 µM | 9.62 µM | > 25 µM | > 25 µM | > 25 µM | > 15.7 µM | > 25 µM |
| COC(=O)c1c2c(c(C)[n+]([O-])c1C)C(=O)C=C(NCc1ccccc1)C2=O | 0.202 µM | 0.391 µM | 1.42 µM | 2.74 µM | 0.7 µM | 3.34 µM | 1.1 µM | 3.46 µM | 1.33 µM | 3.02 µM | 2.33 µM | 6.88 µM | 0.453 µM | 2.95 µM | 0.384 µM | 2.78 µM | 0.379 µM | 7.34 µM | 0.286 µM | 1.21 µM |
